Structures can show the parent of a compound that is named as a salt. Where two headings read alike, the source gives them in different places.
What was measured:
human NTCP [1] = target: T1, human NTCP (Homo sapiens, UniProt Q14973); experiment: Screening fluorescent competitive Myrcludex B-FITC binding assay (96-well, 10 µM drug)
T1 sequence (Q14973 1-349): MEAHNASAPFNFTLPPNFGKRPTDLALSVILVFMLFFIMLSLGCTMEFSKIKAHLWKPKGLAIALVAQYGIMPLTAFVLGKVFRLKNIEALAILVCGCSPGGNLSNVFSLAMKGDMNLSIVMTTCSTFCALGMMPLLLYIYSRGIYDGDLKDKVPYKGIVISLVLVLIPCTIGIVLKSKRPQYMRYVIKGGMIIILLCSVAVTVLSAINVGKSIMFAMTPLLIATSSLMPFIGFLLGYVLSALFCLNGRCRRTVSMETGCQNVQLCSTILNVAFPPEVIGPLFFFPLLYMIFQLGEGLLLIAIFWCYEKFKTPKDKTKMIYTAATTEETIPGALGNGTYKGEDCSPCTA

human NTCP [2] = target: T1, human NTCP; experiment: Screening taurocholate uptake assay (96-well, [14C]taurocholate, 10 µM drug)
[3] = Prestwick library screen, 10 µM drug, B-score of Myrcludex B-FITC binding
[4] = Prestwick library screen, 10 µM drug, B-score of taurocholate uptake
[5] = combined ranking from functional and binding assay B-scores
[6] = Prestwick library screen, Myrcludex B-FITC binding, 10 µM drug
[7] = Prestwick library screen, taurocholate uptake, 10 µM drug
[8] = ranking score beside the functional and binding assay B-scores of the screen
[9] = screen, 10 µM drug, Myrcludex B-FITC binding
[10] = combined ranking from functional and binding screening assays
[11] = screen, 10 µM drug, taurocholate uptake

| SMILES | B-score binding assay (human NTCP [1]; [3]) | B-score functional assay (human NTCP [2]; [4]) | Ranking score (human NTCP [2]; [5]) | B-score binding assay (human NTCP [1]; [6]) | B-score functional assay (human NTCP [2]; [7]) | Ranking score (human NTCP [2]; [8]) | further results |
| --- | --- | --- | --- | --- | --- | --- | --- |
| CCCCOC(=O)c1ccc(N)cc1 [Butamben] | 1.315 | 0.768 | 1050.86 | – | – | – | – |
| CN(Cc1ccc(C(C)(C)C)cc1)Cc1cccc2ccccc12 [Butenafine Hydrochloride] | 0.435 | 1.115 | 986.495 | – | – | – | – |
| CCCCOC(=O)c1ccc(O)cc1 [Butylparaben] | – | – | – | -0.593 | 5.239 | 668.543 | – |
| CCCC[N+]1(C)[C@@H]2C[C@@H](OC(=O)[C@H](CO)c3ccccc3)C[C@H]1[C@@H]1O[C@@H]12.[Br-] (some centres unmarked) [Butylscopolammonium (n-) bromide] | – | – | – | – | – | – | B-score binding assay (human NTCP [1]; [9]): -0.108; Ranking score (human NTCP [2]; [10]): 409.241; B-score functional assay (human NTCP [2]; [11]): -0.739 |
| Cn1c(=O)c2c(ncn2C)n(C)c1=O [Caffeine] | – | – | – | 0.154 | 0.363 | 818.709 | – |
| CC[C@@]1(O)C(=O)OCc2c1cc1n(c2=O)Cc2cc3ccccc3nc2-1 [Camptothecine (S,+)] | 0.08 | 0.986 | 879.695 | – | – | – | – |
| CCN(CC)CCNC(C(=O)OCCC(C)C)c1ccccc1.Cl.Cl (centres unmarked) [Camylofine chlorhydrate] | 0.138 | 1.768 | 947.253 | – | – | – | – |
| CCOc1nc2cccc(C(=O)O)c2n1Cc1ccc(-c2ccccc2-c2nnn[nH]2)cc1 [Candesartan] | – | – | – | 0.128 | 0.287 | 798.474 | – |
| C[C@]12CCC(=O)C=C1C=C[C@@H]1[C@@H]2CC[C@@]2(C)[C@H]1CC[C@@]2(O)CCC(=O)[O-].[K+] [Canrenoic acid potassium salt] | – | – | – | 0.007 | 0.356 | 751.562 | – |
| C[C@]12CCC(=O)C=C1C=C[C@@H]1[C@@H]2CC[C@@]2(C)[C@H]1CC[C@@]21CCC(=O)O1 [Canrenone] | – | – | – | – | – | – | B-score binding assay (human NTCP [1]; [9]): -0.43; Ranking score (human NTCP [2]; [10]): 379.419; B-score functional assay (human NTCP [2]; [11]): -0.551 |
| C[C@H](CS)C(=O)N1CCC[C@H]1C(=O)O [Captopril] | – | – | – | 0.648 | – | 728.08 | – |
| COC(=O)N/N=C/c1c[n+]([O-])c2ccccc2[n+]1[O-] [Carbadox] | 0.674 | 0.663 | 963.5 | – | – | – | – |
| NC(=O)N1c2ccccc2C=Cc2ccccc21 [Carbamazepine] | – | – | – | 0.183 | -0.062 | 671.795 | – |
| CCN(CC)CCOCCOC(=O)C1(c2ccccc2)CCCC1 [Carbetapentane citrate] | 1.7 | 0.114 | 943.43 | – | – | – | – |
| CN(C)CCOC(c1ccc(Cl)cc1)c1ccccn1.O=C(O)/C=C\C(=O)O (centres unmarked) [Carbinoxamine maleate salt] | – | – | – | – | – | – | B-score binding assay (human NTCP [1]; [9]): -1.565; Ranking score (human NTCP [2]; [10]): 433.532; B-score functional assay (human NTCP [2]; [11]): 3.2 |
| CCCC(C)(COC(N)=O)COC(=O)NC(C)C (centres unmarked) [Carisoprodol] | – | – | – | 3.83 | -0.248 | 768.775 | – |
| CCCCCCNC(=O)n1cc(F)c(=O)[nH]c1=O [Carmofur] | – | – | – | – | – | – | B-score binding assay (human NTCP [1]; [9]): 0.877; Ranking score (human NTCP [2]; [10]): 358.68; B-score functional assay (human NTCP [2]; [11]): -2.036 |
| CC(C(=O)O)c1ccc2c(c1)[nH]c1ccc(Cl)cc12 (centres unmarked) [Carprofen] | – | – | – | – | – | – | B-score binding assay (human NTCP [1]; [9]): 0.048; Ranking score (human NTCP [2]; [10]): 288.205; B-score functional assay (human NTCP [2]; [11]): -2.152 |
| COc1ccccc1OCCNCC(O)COc1cccc2[nH]c3ccccc3c12 (centres unmarked) [Carvedilol] | – | – | – | – | – | – | B-score binding assay (human NTCP [1]; [9]): -0.836; Ranking score (human NTCP [2]; [10]): 348.775; B-score functional assay (human NTCP [2]; [11]): -0.341 |
| CCC1=C[C@@H]2CN3CCc4c([nH]c5ccccc45)[C@@](C(=O)OC)(C2)[C@@H]13 [Catharanthine] | – | – | – | – | – | – | B-score binding assay (human NTCP [1]; [9]): -0.047; Ranking score (human NTCP [2]; [10]): 448.328; B-score functional assay (human NTCP [2]; [11]): -0.613 |
| N[C@@H](C(=O)N[C@@H]1C(=O)N2C(C(=O)O)=C(Cl)CS[C@H]12)c1ccccc1.O [Cefaclor hydrate] | – | – | – | – | – | – | B-score binding assay (human NTCP [1]; [9]): -0.309; Ranking score (human NTCP [2]; [10]): 381.916; B-score functional assay (human NTCP [2]; [11]): -0.668 |
| CC1=C(C(=O)O)N2C(=O)[C@@H](NC(=O)[C@H](N)c3ccc(O)cc3)[C@H]2SC1 [Cefadroxil] | – | – | – | – | – | – | B-score binding assay (human NTCP [1]; [9]): -0.675; Ranking score (human NTCP [2]; [10]): 439.805; B-score functional assay (human NTCP [2]; [11]): -0.032 |

| SMILES | B-score binding assay (human NTCP [1]; [3]) | B-score functional assay (human NTCP [2]; [4]) | Ranking score (human NTCP [2]; [5]) | B-score binding assay (human NTCP [1]; [6]) | B-score functional assay (human NTCP [2]; [7]) | Ranking score (human NTCP [2]; [8]) | further results |
| --- | --- | --- | --- | --- | --- | --- | --- |
| Cc1nnc(SCC2=C(C(=O)O)N3C(=O)[C@@H](NC(=O)Cn4cnnn4)[C@H]3SC2)s1 [Cefazolin sodium salt] | – | – | – | 0.04 | 0.093 | 718.895 | – |
| CO/N=C(\C(=O)N[C@@H]1C(=O)N2C(C(=O)O)=C(COC(C)=O)CS[C@H]12)c1csc(N)n1 [Cefotaxime sodium salt] | – | – | – | – | – | – | B-score binding assay (human NTCP [1]; [9]): -1.895; Ranking score (human NTCP [2]; [10]): 382.157; B-score functional assay (human NTCP [2]; [11]): 3.35 |
| CO[C@@]1(NC(=O)C2SC(=C(C(N)=O)C(=O)O)S2)C(=O)N2C(C(=O)O)=C(CSc3nnnn3C)CS[C@@H]21 (some centres unmarked) [Cefotetan] | – | – | – | -0.646 | 4.862 | 655.496 | – |
| CO[C@@]1(NC(=O)Cc2cccs2)C(=O)N2C(C(=O)O)=C(COC(N)=O)CS[C@@H]21 [Cefoxitin sodium salt] | 0.041 | 1.114 | 868.493 | – | – | – | – |
| CC=CC1=C(C(=O)O)N2C(=O)[C@@H](NC(=O)[C@H](N)c3ccc(O)cc3)[C@H]2SC1 [Cefprozil] | – | – | – | – | – | – | B-score binding assay (human NTCP [1]; [9]): -1.441; Ranking score (human NTCP [2]; [10]): 364.678; B-score functional assay (human NTCP [2]; [11]): 0.201 |
| NC(=O)c1cc[n+](CC2=C(C(=O)O)N3C(=O)[C@@H](NC(=O)[C@@H](c4ccccc4)S(=O)(=O)[O-])[C@H]3SC2)cc1 [Cefsulodin sodium salt] | – | – | – | -0.269 | 0.682 | 669.358 | – |
| Nc1nc(/C(=C/CC(=O)O)C(=O)N[C@@H]2C(=O)N3C(C(=O)O)=CCS[C@H]23)cs1 [Ceftibuten] | 1.253 | 0.671 | 1026.13 | – | – | – | – |
| CO/N=C(\C(=O)N[C@@H]1C(=O)N2C(C(=O)O)=C(COC(N)=O)CS[C@H]12)c1ccco1 [Cefuroxime sodium salt] | – | – | – | -0.123 | 0.233 | 660.887 | – |
| Cc1ccc(-c2cc(C(F)(F)F)nn2-c2ccc(S(N)(=O)=O)cc2)cc1 [Celecoxib] | – | – | – | 0.033 | 0.148 | 728.485 | – |
| CCN(CC)C(=O)Nc1ccc(OCC(O)CNC(C)(C)C)c(C(C)=O)c1 (centres unmarked) [Celiprolol HCl] | 1.474 | 0.793 | 1068.26 | – | – | – | – |
| CC(=O)OCC1=C(C(=O)O)N2C(=O)[C@@H](N)[C@H]2SC1 [Cephalosporanic acid, 7-amino] | 0.15 | 0.531 | 845.501 | – | – | – | – |
| CC(=O)OCC1=C(C(=O)O)N2C(=O)[C@@H](NC(=O)Cc3cccs3)[C@H]2SC1 [Cephalothin sodium salt] | – | – | – | – | – | – | B-score binding assay (human NTCP [1]; [9]): 0.561; Ranking score (human NTCP [2]; [10]): 427.172; B-score functional assay (human NTCP [2]; [11]): -1.381 |
| O=C(O)COCCN1CCN(C(c2ccccc2)c2ccc(Cl)cc2)CC1 (centres unmarked) [Cetirizine dihydrochloride] | – | – | – | 0.001 | 0.907 | 820.204 | – |
| CN1C(=O)CCS(=O)(=O)C1c1ccc(Cl)cc1 (centres unmarked) [Chlormezanone] | 1.516 | 0.286 | 979.274 | – | – | – | – |
| CN(C)CCN(Cc1ccc(Cl)cc1)c1ccccn1.Cl [Chloropyramine hydrochloride] | – | – | – | – | – | – | B-score binding assay (human NTCP [1]; [9]): 2.853; Ranking score (human NTCP [2]; [10]): 387.298; B-score functional assay (human NTCP [2]; [11]): -2.146 |
| CCN(CC)CCCC(C)Nc1ccnc2cc(Cl)ccc12 (centres unmarked) [Chloroquine diphosphate] | – | – | – | – | – | – | B-score binding assay (human NTCP [1]): 0.002; B-score functional assay (human NTCP [2]): 0.222; Ranking score (human NTCP [2]): 726.833 |
| NS(=O)(=O)c1cc2c(cc1Cl)N=CNS2(=O)=O [Chlorothiazide] | 0.263 | 1.41 | 967.179 | – | – | – | – |
| COc1ccc(C(Cl)=C(c2ccc(OC)cc2)c2ccc(OC)cc2)cc1 [Chlorotrianisene] | 1.19 | 0.481 | 983.616 | – | – | – | – |
| CN(C)CCC(c1ccc(Cl)cc1)c1ccccn1 (centres unmarked) [Chlorpheniramine maleate] | 1.318 | 1.245 | 1106.99 | – | – | – | – |
| CCCNC(=O)NS(=O)(=O)c1ccc(Cl)cc1 [Chlorpropamide] | – | – | – | -0.165 | 1.589 | 766.984 | – |
| CN(C)CC/C=C1/c2ccccc2Sc2ccc(Cl)cc21 [Chlorprothixene hydrochloride] | – | – | – | -0.184 | 0.429 | 661.498 | – |
| CN(C)[C@@H]1C(O)=C(C(N)=O)C(=O)[C@@]2(O)C(O)=C3C(=O)c4c(O)ccc(Cl)c4[C@@](C)(O)[C@H]3C[C@@H]12 [Chlortetracycline hydrochloride] | – | – | – | 0.571 | -0.045 | 738.786 | – |
